What was measured:
[1] = no unit, species or route given; in mg/kg; cited from earlier work
[2] = in vivo

Q: For CC(C)(O)C#N [acetone cyanohydrin], which LD50 value [1] is on record?
A: The LD50 value was 18.65.

Q: Which LD50 value [1] does the source give for N#CC(O)c1ccccc1 (stereo not drawn) [mandelonitrile] here?
A: The LD50 value was 116.

Q: What about the “times less toxic than sodium cyanide” value [2] of the same compound?
A: The value was “approximately 18”.
